Like-named read-outs stand apart in the source and are kept apart here.
Key:
HepG2 cells [1] = conditions: for IC50: read-out: MMP assays IC50 (µM) HepG2
rat primary hepatocytes [2] = tested on: rat primary hepatocytes
HepG2 cells [3] = conditions: cited from earlier work
rat primary hepatocytes [4] = test: MMP assay in rat primary hepatocytes; conditions: for IC50: read-out: MMP assays IC50 (µM) Rat Hepatocytes
[5] = tested on: Caenorhabditis elegans strain PE255; test: In vivo C. elegans ATP status assay; conditions: for minimal effective concentration: Caenorhabditis elegans, read-out: LEC LUM: lowest effect concentration for luminescence, a measure of nematode ATP content
[6] = tested on: Caenorhabditis elegans (Bristol N2); test: C. elegans larval development and growth assay; conditions: for minimal effective concentration: Caenorhabditis elegans, read-out: LEC EXT: lowest effect concentration for extinction, a measure of nematode size
[7] = read-out: MMP assays IC50 (µM), qHTS-HepG2
[8] = HepG2 cells, single number from one experiment
[9] = read-out: MMP assays IC50 (µM) qHTS-HepG2

| Compound | MMP assays efficacy (%) HepG2 (HepG2 cells [1]) | MMP assays efficacy (%) Rat Hepatocytes (rat primary hepatocytes [2]) | MMP assays efficacy (%) qHTS-HepG2 (HepG2 cells [3]) | IC50 (HepG2 cells [3]; [7]) [µM] | IC50 (rat primary hepatocytes [4]) [µM] | IC50 (HepG2 cells [1]) [µM] | also measured |
| --- | --- | --- | --- | --- | --- | --- | --- |
| O=[Se](O)O [Selenious acid] | inactive | -75±56% | -68±13% | 16 ± 22.8 | 44.1 ± 26.9 |  | MMP assays IC50 (µM) HepG2 (HepG2 cells [1]): inactive |
| CCCC[P+](CCCC)(CCCC)CCCC.[Cl-] [Tetrabutylphosphonium chloride] | inactive | -108+36% | inactive |  | 15.3 ± 5 |  | MMP assays IC50 (µM) HepG2 (HepG2 cells [1]): inactive; MMP assays IC50 (µM) qHTS-HepG2 (HepG2 cells [3]): inactive |
| CCC[CH2][Sn]([CH2]CCC)([CH2]CCC)[CH2]CCC [Tetrabutyltin] | -98% | inactive | -100±1% | 5.66 ± 1.03 |  | 11.2 | MMP assays IC50 (µM) Rat Hepatocytes (rat primary hepatocytes [4]): inactive |
| CCCCCCCC[P+](CCCCCCCC)(CCCCCCCC)CCCCCCCC.[Br-] [Tetraoctylphosphonium bromide] | -105% | -90±21% | -91±6% | 0.18 ± 0.12 | 6.82 ± 2.23 | 0.32 |  |
| O=C1CCC(N2C(=O)c3ccccc3C2=O)C(=O)N1 (stereo not drawn) [Thalidomide] |  |  |  |  |  |  | LUM: mean difference in luminescence (ATP content) relative to plate controls ([5]; 0.5 µM): 0.03143; LUM: mean difference in luminescence (ATP content) relative to plate controls ([5]; 1 µM): 0.01645; LUM: mean difference in luminescence (ATP content) relative to plate controls ([5]; 5 µM): 0.01511; LUM: mean difference in luminescence (ATP content) relative to plate controls ([5]; 10 µM): 0.04635; LUM: mean difference in luminescence (ATP content) relative to plate controls ([5]; 25 µM): 0.07311; LUM: mean difference in luminescence (ATP content) relative to plate controls ([5]; 50 µM): -0.2127; LUM: mean difference in luminescence (ATP content) relative to plate controls ([5]; 75 µM): 0.4289; LUM: mean difference in luminescence (ATP content) relative to plate controls ([5]; 100 µM): 0.7958; minimal effective concentration [5]: 75 µM; EXT: mean difference in nematode size relative to plate controls ([6]; 0.5 µM): 0.09319; EXT: mean difference in nematode size relative to plate controls ([6]; 1 µM): -0.00358; EXT: mean difference in nematode size relative to plate controls ([6]; 5 µM): 0.07925; EXT: mean difference in nematode size relative to plate controls ([6]; 10 µM): 0.0474; EXT: mean difference in nematode size relative to plate controls ([6]; 25 µM): 0.0694; EXT: mean difference in nematode size relative to plate controls ([6]; 50 µM): 0.4966; EXT: mean difference in nematode size relative to plate controls ([6]; 75 µM): 0.9805; EXT: mean difference in nematode size relative to plate controls ([6]; 100 µM): 0.9456; minimal effective concentration [6]: 50 µM |
| O=C(Nc1ccc(Br)cc1)c1cc(Br)cc(Br)c1O [Tribromosalan] |  | -96±35% |  | 1.12 |  |  | MMP assays efficacy (%) HepG2 (HepG2 cells [1]; [8]): -111%; IC50 (HepG2 cells [1]; [8]): 0.97 µM; IC50 (rat primary hepatocytes [4]; rat hepatocytes, mean ± SD of three experiments): 0.55 ± 0.36 µM |
| CCCCCCCCCCCCCC[P+](CCCC)(CCCC)CCCC.[Cl-] [Tributyltetradecylphosphonium chloride] |  | -93±15% | -82±17% | 0.71 ± 0.15 | 7.66 ± 0.5 | 1.12 |  |
| CCO[Si](CC(C)C)(OCC)OCC [Triethoxy(2-methylpropyl)silane] | -83% | inactive | -66±5% | 28.9 ± 6.98 |  | 35.5 | MMP assays IC50 (µM) Rat Hepatocytes (rat primary hepatocytes [4]): inactive |
| CCCCCCCCCCCCCC[P+](CCCCCC)(CCCCCC)CCCCCC.[Br-] [Trihexyltetradecylphosphonium bromide] | -95% | -89±37% | -96±9% | 0.84 ± 0.24 | 18.8 ± 4.25 | 0.45 |  |
| CC(=O)[O][Sn]([c]1ccccc1)([c]1ccccc1)[c]1ccccc1 [Triphenyltin acetate] | -94% | -74±32% | -99±5% | 0.12 ± 0.04 | 24.1 ± 10.1 | 1.12 |  |
| [F][Sn]([c]1ccccc1)([c]1ccccc1)[c]1ccccc1 [Triphenyltin fluoride] | -104% | -81±23% | -106±5% | 0.47 ± 0.31 | 6.17 ± 2.51 | 1.78 |  |
| [OH-].c1cc[c]([Sn+]([c]2ccccc2)[c]2ccccc2)cc1 [Triphenyltin hydroxide] | -94% | -118±53% | -95±9% | 0.12 ± 0.03 | 14.8 ± 5.12 | 1.12 |  |
| CC(C)[C@@H]1NC(=O)[C@H](C)OC(=O)[C@@H](C(C)C)NC(=O)[C@@H](C(C)C)OC(=O)[C@H](C(C)C)NC(=O)[C@H](C)OC(=O)[C@@H](C(C)C)NC(=O)[C@@H](C(C)C)OC(=O)[C@H](C(C)C)NC(=O)[C@H](C)OC(=O)[C@@H](C(C)C)NC(=O)[C@@H](C(C)C)OC1=O [Valinomycin] |  |  |  |  |  |  | LUM: mean difference in luminescence (ATP content) relative to plate controls ([5]; 0.5 µM): -0.05222; LUM: mean difference in luminescence (ATP content) relative to plate controls ([5]; 1 µM): -0.06335; LUM: mean difference in luminescence (ATP content) relative to plate controls ([5]; 5 µM): 0.1958; LUM: mean difference in luminescence (ATP content) relative to plate controls ([5]; 10 µM): 0.3328; LUM: mean difference in luminescence (ATP content) relative to plate controls ([5]; 25 µM): 1.023; LUM: mean difference in luminescence (ATP content) relative to plate controls ([5]; 50 µM): 0.6115; LUM: mean difference in luminescence (ATP content) relative to plate controls ([5]; 75 µM): 0.5181; LUM: mean difference in luminescence (ATP content) relative to plate controls ([5]; 100 µM): 0.5717; minimal effective concentration [5]: 25 µM; EXT: mean difference in nematode size relative to plate controls ([6]; 0.5 µM): 0.09961; EXT: mean difference in nematode size relative to plate controls ([6]; 1 µM): 0.01293; EXT: mean difference in nematode size relative to plate controls ([6]; 5 µM): -0.07954; EXT: mean difference in nematode size relative to plate controls ([6]; 10 µM): -0.01187; EXT: mean difference in nematode size relative to plate controls ([6]; 25 µM): 0.0497; EXT: mean difference in nematode size relative to plate controls ([6]; 50 µM): 0.3415; EXT: mean difference in nematode size relative to plate controls ([6]; 75 µM): 0.411; EXT: mean difference in nematode size relative to plate controls ([6]; 100 µM): 0.3807; minimal effective concentration [6]: 50 µM |
| C=C1CC[C@H](O)C/C1=C/C=C1\CCC[C@]2(C)[C@@H]([C@H](C)CCCC(C)C)CC[C@@H]12 [Vitamin D3] | inactive | inactive | inactive |  |  |  | MMP assays IC50 (µM) HepG2 (HepG2 cells [1]): inactive; MMP assays IC50 (µM) qHTS-HepG2 (HepG2 cells [3]): inactive; MMP assays IC50 (µM) Rat Hepatocytes (rat primary hepatocytes [4]): inactive |
| ClC1C(Cl)C(Cl)C(Cl)C(Cl)C1Cl (stereo not drawn) [alpha-1,2,3,4,5,6-Hexachlorocyclohexane] | inactive | -54±20% | -54±7% |  | 39.8 |  | MMP assays IC50 (µM) HepG2 (HepG2 cells [1]): inactive; IC50 (HepG2 cells [3]; [9]): 49 ± 6.35 µM |
| CCCCC/C(=C\c1ccccc1)CO [alpha-Amylcinnamyl alcohol] | -69% | -85±44% | -87±10% |  | 4.83 ± 4.07 | 56.2 | IC50 (HepG2 cells [3]; [9]): 38.1 ± 17.4 µM |
| Nc1nc(N)c(N)c(N)n1.O=S(=O)(O)O [tetra-Aminopyrimidine sulfate] | -87% | -55±32% | -117±30% | 18.7 ± 11.4 | 42.1 ± 30.6 | 25.1 |  |
| Cresyl diphenyl phosphate | -91% | -76±37% |  |  | 23 ± 9 | 3.55 | IC50 (HepG2 cells [3]; [9]): 2.38 ± 2.32 µM |
| Dinocap | -100% | -93±7% | -94±10% |  | 4.1 ± 2.16 | 0.63 | IC50 (HepG2 cells [3]; [9]): 0.34 ± 0.3 µM |
| Mepartricin | -99% | -65±17% | -82±8% | 23.2 ± 6.59 | 27.7 ± 4.48 | 6.9 |  |
| Methyl violet | -100% | -81±20% | -121±3% | 0.07 ± 0.03 | 1.73 | 0.44 |  |
| Tributyltin chloride | -96% | -136±58% | -97±11% | 0.11 ± 0.02 | 8.95 ± 1.03 | 0.89 |  |
